Results reported in US20240366775A1, “HUMAN TRANSFERRIN RECEPTOR BINDING ANTIBODY-PEPTIDE CONJUGATE” (PEPTIDREAM INC., priority 2021, published 2024).
Where a SMILES comes first, the peptide text is derived from it. Bridges are numbered along the chain shown (N, C = ends). [ ]: non-standard residue; d: D form. The star is where a group is joined. NMeY = CN[C@@H](Cc1ccc(O)cc1)C(=O)O; NMeF = CN[C@@H](Cc1ccccc1)C(=O)O; OSu = O=C1CCC(=O)N1O*; GABA = NCCCC(=O)O

target: human transferrin receptor (hTfR) (Homo sapiens, UniProt P02786); test: SPR measurement of peptide binding to hTfR; details: not given
Sequence (P02786 whole entry): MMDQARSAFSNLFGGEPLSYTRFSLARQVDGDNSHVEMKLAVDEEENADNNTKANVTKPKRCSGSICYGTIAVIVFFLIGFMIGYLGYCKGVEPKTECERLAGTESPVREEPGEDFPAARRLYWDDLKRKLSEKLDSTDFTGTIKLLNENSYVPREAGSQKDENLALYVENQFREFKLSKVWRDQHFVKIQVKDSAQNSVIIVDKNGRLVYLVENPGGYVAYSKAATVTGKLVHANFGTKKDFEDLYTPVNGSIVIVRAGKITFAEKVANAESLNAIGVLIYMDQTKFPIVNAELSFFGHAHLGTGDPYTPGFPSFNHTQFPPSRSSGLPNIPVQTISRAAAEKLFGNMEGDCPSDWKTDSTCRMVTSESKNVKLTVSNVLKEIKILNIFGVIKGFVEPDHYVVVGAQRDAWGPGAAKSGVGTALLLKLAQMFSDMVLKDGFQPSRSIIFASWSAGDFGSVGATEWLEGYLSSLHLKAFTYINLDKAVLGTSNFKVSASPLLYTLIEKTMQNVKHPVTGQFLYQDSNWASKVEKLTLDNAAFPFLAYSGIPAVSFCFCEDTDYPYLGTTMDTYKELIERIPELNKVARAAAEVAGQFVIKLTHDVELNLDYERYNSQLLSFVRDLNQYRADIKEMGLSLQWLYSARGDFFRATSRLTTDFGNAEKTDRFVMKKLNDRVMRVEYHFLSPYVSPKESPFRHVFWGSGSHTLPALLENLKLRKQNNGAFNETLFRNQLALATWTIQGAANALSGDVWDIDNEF
Description: Note that ND indicates No Data (here, it means that no data was obtained).

| Structure (SMILES) | Kd |
| --- | --- |
| CC[C@H](C)[C@@H]1NC(=O)[C@H](Cc2ccc(O)cc2)NC(=O)[C@H](Cc2ccc(O)cc2)NC(=O)[C@H](CC(N)=O)NC(=O)[C@H](Cc2c[nH]c3ccccc23)NC(=O)[C@H](C(C)C)NC(=O)[C@H](Cc2ccccc2)N(C)C(=O)[C@H](C(C)C)NC(=O)[C@H](C)NC(=O)CSC[C@@H](C(=O)NCC(=O)NCC(=O)NCC(=O)NCC(=O)N[C@@H](CO)C(=O)N[C@@H](CO)C(=O)N[C@@H](CCCCNC(=O)C2CCC(CN3C(=O)C=CC3=O)CC2)C(N)=O)NC(=O)[C@H](Cc2ccc(O)cc2)N(C)C(=O)[C@H](Cc2ccc(O)cc2)NC(=O)[C@H](CCCNC(=N)N)NC(=O)[C@H](CCCNC(=N)N)NC(=O)[C@H]([C@@H](C)CC)NC1=O (stereo partly drawn) [894_3m_G4S2_K(Mal)] | 1 to 100 nM |

same assay, conditions: measured on the naked peptide (1st to 15th amino acids, without linker) corresponding to the listed linker-attached peptide; read-out: KD value of binding to hTfR by SPR

| Kd | Structure (SMILES) |
| --- | --- |
| 1 to 100 nM | CC[C@H](C)[C@@H]1NC(=O)[C@H](Cc2ccc(O)cc2)NC(=O)[C@H](Cc2ccc(O)cc2)NC(=O)[C@H](CC(N)=O)NC(=O)[C@H](Cc2c[nH]c3ccccc23)NC(=O)[C@H](C(C)C)NC(=O)[C@H](Cc2ccccc2)N(C)C(=O)[C@H](C(C)C)NC(=O)[C@H](C)NC(=O)CSC[C@@H](C(=O)NCC(=O)NCC(=O)N[C@@H](CCCNC(=N)N)C(=O)NCC(=O)N[C@@H](CCCNC(=N)N)C(=O)N[C@@H](CO)C(=O)N[C@@H](CCCCNC(=O)C2CCC(CN3C(=O)C=CC3=O)CC2)C(N)=O)NC(=O)[C@H](Cc2ccc(O)cc2)N(C)C(=O)[C@H](Cc2ccc(O)cc2)NC(=O)[C@H](CCCNC(=N)N)NC(=O)[C@H](CCCNC(=N)N)NC(=O)[C@H]([C@@H](C)CC)NC1=O (stereo partly drawn) [894_3m_GGRGRS_K(Mal)] |
| < 1 nM | CC[C@H](C)[C@@H]1NC(=O)[C@H](Cc2ccc(O)cc2)NC(=O)[C@H](Cc2ccc(O)cc2)NC(=O)[C@H](CC(N)=O)NC(=O)[C@H](Cc2c[nH]c3ccccc23)N(C)C(=O)[C@H](C(C)C)NC(=O)[C@H](Cc2ccccc2)NC(=O)[C@H](C(C)C)NC(=O)[C@H](C)NC(=O)CSC[C@@H](C(=O)NCC(=O)NCC(=O)N[C@@H](CCC(=O)O)C(=O)N[C@@H](CO)C(=O)N[C@@H](CCC(=O)O)C(=O)N[C@@H](CO)C(=O)N[C@@H](CCCCNC(=O)C2CCC(CN3C(=O)C=CC3=O)CC2)C(N)=O)NC(=O)[C@H](Cc2ccc(O)cc2)N(C)C(=O)[C@H](Cc2ccc(O)cc2)NC(=O)[C@H](CCCNC(=N)N)NC(=O)[C@H](CCCNC(=N)N)NC(=O)[C@H]([C@@H](C)CC)NC1=O (stereo partly drawn) [894_5m_GGESES_K(Mal)] |
| < 1 nM | CC[C@H](C)[C@@H]1NC(=O)[C@H](Cc2ccc(O)cc2)NC(=O)[C@H](Cc2ccc(O)cc2)NC(=O)[C@H](CC(N)=O)NC(=O)[C@H](Cc2c[nH]c3ccccc23)N(C)C(=O)[C@H](C(C)C)NC(=O)[C@H](Cc2ccccc2)NC(=O)[C@H](C(C)C)NC(=O)[C@H](C)NC(=O)CSC[C@@H](C(=O)NCC(=O)NCC(=O)N[C@@H](CCCNC(=N)N)C(=O)N[C@@H](CO)C(=O)N[C@@H](CCC(=O)O)C(=O)N[C@@H](CO)C(=O)N[C@@H](CCCCNC(=O)C2CCC(CN3C(=O)C=CC3=O)CC2)C(N)=O)NC(=O)[C@H](Cc2ccc(O)cc2)N(C)C(=O)[C@H](Cc2ccc(O)cc2)NC(=O)[C@H](CCCNC(=N)N)NC(=O)[C@H](CCCNC(=N)N)NC(=O)[C@H]([C@@H](C)CC)NC1=O (stereo partly drawn) [894_5m_GGRSES_K(Mal)] |
| < 1 nM | CC[C@H](C)[C@@H]1NC(=O)[C@H](Cc2ccc(O)cc2)NC(=O)[C@H](Cc2ccc(O)cc2)NC(=O)[C@H](CC(N)=O)NC(=O)[C@H](Cc2c[nH]c3ccccc23)N(C)C(=O)[C@H](C(C)C)NC(=O)[C@H](Cc2ccccc2)NC(=O)[C@H](C(C)C)NC(=O)[C@H](C)NC(=O)CSC[C@@H](C(=O)NCC(=O)NCC(=O)N[C@@H](CO)C(=O)NCC(=O)N[C@@H](CCC(=O)O)C(=O)N[C@@H](CO)C(=O)N[C@@H](CCCCNC(=O)C2CCC(CN3C(=O)C=CC3=O)CC2)C(N)=O)NC(=O)[C@H](Cc2ccc(O)cc2)N(C)C(=O)[C@H](Cc2ccc(O)cc2)NC(=O)[C@H](CCCNC(=N)N)NC(=O)[C@H](CCCNC(=N)N)NC(=O)[C@H]([C@@H](C)CC)NC1=O (stereo partly drawn) [894_5m_GGSGES_K(Mal)] |
| < 1 nM | CC[C@H](C)[C@@H]1NC(=O)[C@H](Cc2ccc(O)cc2)NC(=O)[C@H](Cc2ccc(O)cc2)NC(=O)[C@H](CC(N)=O)NC(=O)[C@H](Cc2c[nH]c3ccccc23)N(C)C(=O)[C@H](C(C)C)NC(=O)[C@H](Cc2ccccc2)NC(=O)[C@H](C(C)C)NC(=O)[C@H](C)NC(=O)CSC[C@@H](C(=O)NCC(=O)N[C@@H](CO)C(=O)N[C@@H](CO)C(=O)NCC(=O)N[C@@H](CO)C(=O)N[C@@H](CO)C(=O)N[C@@H](CCCCNC(=O)C2CCC(CN3C(=O)C=CC3=O)CC2)C(N)=O)NC(=O)[C@H](Cc2ccc(O)cc2)N(C)C(=O)[C@H](Cc2ccc(O)cc2)NC(=O)[C@H](CCCNC(=N)N)NC(=O)[C@H](CCCNC(=N)N)NC(=O)[C@H]([C@@H](C)CC)NC1=O (stereo partly drawn) [894_5m_GSSGSS_K(Mal)] |

| Structure (SMILES) | Kd |
| --- | --- |
| CC[C@H](C)[C@@H]1NC(=O)[C@H](Cc2ccc(O)cc2)NC(=O)[C@H](Cc2ccc(O)cc2)NC(=O)[C@H](CC(N)=O)NC(=O)[C@H](Cc2c[nH]c3ccccc23)N(C)C(=O)[C@H](C(C)C)NC(=O)[C@H](Cc2ccccc2)N(C)C(=O)[C@H](C(C)C)NC(=O)[C@H](C)NC(=O)CSC[C@@H](C(=O)NCC(=O)NCC(=O)N[C@@H](CO)C(=O)NCC(=O)N[C@@H](CCC(=O)O)C(=O)N[C@@H](CO)C(=O)N[C@@H](CCCCNC(=O)C2CCC(CN3C(=O)C=CC3=O)CC2)C(N)=O)NC(=O)[C@H](Cc2ccc(O)cc2)N(C)C(=O)[C@H](Cc2ccc(O)cc2)NC(=O)[C@H](CCCNC(=N)N)NC(=O)[C@H](CCCNC(=N)N)NC(=O)[C@H]([C@@H](C)CC)NC1=O (stereo partly drawn) [894_3m_5m_GGSGES_K(Mal)] | 1 to 100 nM |
| CC[C@H](C)[C@@H]1NC(=O)[C@H](Cc2ccc(O)cc2)NC(=O)[C@H](Cc2ccc(O)cc2)NC(=O)[C@H](CC(N)=O)NC(=O)[C@H](Cc2c[nH]c3ccccc23)NC(=O)[C@H](C(C)C)NC(=O)[C@H](Cc2ccccc2)N(C)C(=O)[C@H](C(C)C)NC(=O)[C@H](C)NC(=O)CSC[C@@H](C(=O)NCC(=O)NCC(=O)N[C@H](CCC(=O)O)C(=O)NCC(=O)NCC(=O)N[C@H](CCC(=O)O)C(=O)NCC(=O)NCC(=O)N[C@H](CCC(=O)O)C(=O)NCC(=O)NCC(=O)N[C@H](CCCCNC(=O)C2CCC(CN3C(=O)C=CC3=O)CC2)C(N)=O)NC(=O)[C@H](Cc2ccc(O)cc2)N(C)C(=O)[C@H](Cc2ccc(O)cc2)NC(=O)[C@H](CCCNC(=N)N)NC(=O)[C@H](CCCNC(=N)N)NC(=O)[C@H]([C@@H](C)CC)NC1=O (stereo partly drawn) [894_3m_Linke04_dk(Mal)] | 1 to 100 nM |

same assay, conditions: naked peptide (1st to 15th amino acids, without linker part) corresponding to the listed linker-attached peptide; read-out: SPR of naked peptide (KD for binding to hTfR)

| Kd | Structure (SMILES) |
| --- | --- |
| 1 to 100 nM | CC[C@H](C)[C@@H]1NC(=O)[C@H](Cc2ccc(O)cc2)NC(=O)[C@H](Cc2ccc(O)cc2)NC(=O)[C@H](CC(N)=O)NC(=O)[C@H](Cc2c[nH]c3ccccc23)NC(=O)[C@H](C(C)C)NC(=O)[C@H](Cc2ccccc2)N(C)C(=O)[C@H](C(C)C)NC(=O)[C@H](C)NC(=O)CSC[C@@H](C(=O)NCC(=O)NCC(=O)N[C@@H](CCC(N)=O)C(=O)NCC(=O)N[C@@H](CCC(N)=O)C(=O)N[C@@H](CO)C(=O)NCC(=O)NCC(=O)N[C@@H](CCC(N)=O)C(=O)NCC(=O)N[C@@H](CCC(N)=O)C(=O)N[C@@H](CO)C(=O)NCCCC(=O)ON2C(=O)CCC2=O)NC(=O)[C@H](Cc2ccc(O)cc2)N(C)C(=O)[C@H](Cc2ccc(O)cc2)NC(=O)[C@H](CCCNC(=N)N)NC(=O)[C@H](CCCNC(=N)N)NC(=O)[C@H]([C@@H](C)CC)NC1=O [894_3m_GGQGQSx2_gAbu(NHS)] ({CH2CO}-AV[NMeF]VWNYYIIRRY[NMeY]CGGQGQSGGQGQS[GABA]-OSu; thioether N-15) |
| < 1 nM | CC[C@H](C)[C@@H]1NC(=O)[C@H](Cc2ccc(O)cc2)NC(=O)[C@H](Cc2ccc(O)cc2)NC(=O)[C@H](CC(N)=O)NC(=O)[C@H](Cc2c[nH]c3ccccc23)N(C)C(=O)[C@H](C(C)C)NC(=O)[C@H](Cc2ccccc2)NC(=O)[C@H](C(C)C)NC(=O)[C@H](C)NC(=O)CSC[C@@H](C(=O)NCCOCCOCCOCCOCCOCCOCCOCCOCCC(=O)N[C@@H](CCCCNC(=O)C2CCC(CN3C(=O)C=CC3=O)CC2)C(N)=O)NC(=O)[C@H](Cc2ccc(O)cc2)N(C)C(=O)[C@H](Cc2ccc(O)cc2)NC(=O)[C@H](CCCNC(=N)N)NC(=O)[C@H](CCCNC(=N)N)NC(=O)[C@H]([C@@H](C)CC)NC1=O (stereo partly drawn) [894_5m_PEG08_K(Mal)] |
| 1 to 100 nM | CC[C@H](C)[C@@H]1NC(=O)[C@H](Cc2ccc(O)cc2)NC(=O)[C@H](Cc2ccc(O)cc2)NC(=O)[C@H](CC(N)=O)NC(=O)[C@H](Cc2c[nH]c3ccccc23)NC(=O)[C@H](C(C)C)NC(=O)[C@H](Cc2ccccc2)N(C)C(=O)[C@H](C(C)C)NC(=O)[C@H](C)NC(=O)CSC[C@@H](C(=O)NCC(=O)NCC(=O)NCC(=O)NCC(=O)N[C@@H](CO)C(=O)N[C@@H](CO)C(=O)N[C@@H](CCCCn2cc(CN3C(=O)C=CC3=O)nn2)C(N)=O)NC(=O)[C@H](Cc2ccc(O)cc2)N(C)C(=O)[C@H](Cc2ccc(O)cc2)NC(=O)[C@H](CCCNC(=N)N)NC(=O)[C@H](CCCCN)NC(=O)[C@H]([C@@H](C)CC)NC1=O [894_11K_3MeF_G4S2_KTrzMal] |
| 1 to 100 nM | CC[C@H](C)[C@@H]1NC(=O)[C@H](Cc2ccc(O)cc2)NC(=O)[C@H](Cc2ccc(O)cc2)NC(=O)[C@H](CC(N)=O)NC(=O)[C@H](Cc2c[nH]c3ccccc23)N(C)C(=O)[C@H](C(C)C)NC(=O)[C@H](Cc2ccccc2)N(C)C(=O)[C@H](C(C)C)NC(=O)[C@H](C)NC(=O)CSC[C@@H](C(=O)NCC(=O)NCC(=O)NCC(=O)NCC(=O)N[C@@H](CO)C(=O)N[C@@H](CO)C(=O)N[C@@H](CCCCn2cc(CN3C(=O)C=CC3=O)nn2)C(N)=O)NC(=O)[C@H](Cc2ccc(O)cc2)N(C)C(=O)[C@H](Cc2ccc(O)cc2)NC(=O)[C@H](CCCNC(=N)N)NC(=O)[C@H](CCCCN)NC(=O)[C@H]([C@@H](C)CC)NC1=O [894_11K_3Me_5Me_G4S2_KTrzMal] |
